Measurements from the NIST ThermoML archive (doi:10.1021/je0603022).

Key:
[1] = refractive index (Na D-line) (dimensionless); xn = mol fraction of the nth substance listed; settings: 293.15 K, 101.3 kPa, Liquid, Standard Abbe refractometry
[2] = refractive index (Na D-line) (dimensionless); settings: 101.33 kPa, Liquid, Standard Abbe refractometry
[3] = Liquid, Ebulliometric method (Recirculating still)

c1ccsc1 [thiophene] + C=CCCCC
[1]
Settings | refractive index
x1 = 0.024 | 1.3903
x1 = 0.051 | 1.3926
x1 = 0.076 | 1.3949
x1 = 0.094 | 1.3966
x1 = 0.185 | 1.4055
x1 = 0.288 | 1.4163
x1 = 0.378 | 1.4266
x1 = 0.486 | 1.4402
x1 = 0.579 | 1.453
x1 = 0.683 | 1.4688
x1 = 0.788 | 1.4866
x1 = 0.89 | 1.5058
x1 = 0.91 | 1.5097
x1 = 0.948 | 1.5174
x1 = 0.974 | 1.523
x1 = 1 | 1.5287

CCCCCC [hexane] + c1ccsc1
Settings | refractive index
[1], x2 = 0 | 1.3751

C=CCCCC [hex-1-ene]
Settings | refractive index | vapor or sublimation pressure [kPa]
[2], 293.15 K | 1.3881 | –
[2], 298.15 K | 1.3851 | –
[3], 298.99 K | – | 25.68
[3], 302.85 K | – | 30.13
[3], 306.73 K | – | 35.19
[3], 310.9 K | – | 41.41
[3], 316.17 K | – | 50.46
[3], 320.92 K | – | 59.91
[3], 323.15 K | – | 64.82
[3], 325.41 K | – | 70.09
[3], 329.11 K | – | 79.46
[3], 330.99 K | – | 84.63
[3], 332.94 K | – | 90.24
[3], 333.15 K | – | 90.94
[3], 336.04 K | – | 99.73

c1ccsc1 [thiophene]
Settings | refractive index, 293.15 K | refractive index, 298.15 K | vapor or sublimation pressure, 323.15 K [kPa] | vapor or sublimation pressure, 333.15 K [kPa] | vapor or sublimation pressure, 338.15 K [kPa]
[2] | 1.5287 | 1.5255 | – | – | –
[3] | – | – | 31.21 | 45.44 | 54.27

C=CCCCC [hex-1-ene] + c1ccsc1
Settings | refractive index
[1], x2 = 0 | 1.3881

CCCCCC [hexane]
Settings | refractive index | vapor or sublimation pressure [kPa]
[2], 293.15 K | 1.3751 | –
[2], 298.15 K | 1.3724 | –
[3], 307.31 K | – | 29.67
[3], 311.36 K | – | 34.86
[3], 314.93 K | – | 40.02
[3], 316.81 K | – | 43.01
[3], 321.97 K | – | 52.02
[3], 323.15 K | – | 54.25
[3], 326.94 K | – | 62.11
[3], 331 K | – | 71.39
[3], 335.54 K | – | 83.09
[3], 338.15 K | – | 90.44
[3], 338.59 K | – | 91.73
[3], 342 K | – | 102.27

Cc1ccccc1 [toluene]
Settings | refractive index
[2], 298.15 K | 1.4939

c1ccsc1 [thiophene] + CCCCCC
[1]
Settings | refractive index
x1 = 0.027 | 1.3774
x1 = 0.05 | 1.3794
x1 = 0.08 | 1.3822
x1 = 0.096 | 1.3836
x1 = 0.194 | 1.3933
x1 = 0.292 | 1.4039
x1 = 0.394 | 1.4161
x1 = 0.494 | 1.4296
x1 = 0.588 | 1.4438
x1 = 0.697 | 1.4624
x1 = 0.797 | 1.4814
x1 = 0.897 | 1.5034
x1 = 0.919 | 1.5084
x1 = 0.949 | 1.5158
x1 = 0.974 | 1.5219
x1 = 1 | 1.5287
